SMILES strings stand for the structures. In brackets after ≈: the same amount, converted by molar mass.

Data on 1 compound can be found in US20230122911A1, “FORMULATIONS OF ENZALUTAMIDE” (Astellas Pharma Inc., priority 2012, published 2023).

A short description of data set [1]: physchem. To be noted: USP phosphate buffer (pH 6.8), pH 6.8, aqueous buffer, kinetic from dmso stock.
Data set [2] in a line: Solubility test with polymers (Example 24). To be noted: USP phosphate buffer (pH 6.8), pH 6.8, aqueous buffer, kinetic from dmso stock, after 5 min.

A word on the solubility: it is how much of the substance goes into solution per volume. With `CNC(=O)c1ccc(N2C(=S)N(c3ccc(C#N)c(C(F)(F)F)c3)C(=O)C2(C)C)cc1F` [enzalutamide, 4-{3-[4-cyano-3-(trifluoromethyl)phenyl]-5,5-dimethyl-4-oxo-2-sulfanylideneimidazolidin-1-yl}-2-fluoro-N-methylbenzamide], the solubility at 5 min worked out at 31.1 µg/mL (≈ 67 µM) in data set [1]; 47.4 µg/mL (≈ 102 µM) in data set [2] (with copolyvidone); 42.7 µg/mL (≈ 91.9 µM) in data set [2] (with hydroxypropylmethylcellulose 2910 (TC-5E)); 39.2 µg/mL (≈ 84.4 µM) in data set [2] (with hydroxypropylmethylcellulose 2910 (TC-5R)); 40.1 µg/mL (≈ 86.3 µM) in data set [2] (with polyvinylpyrrolidone); 29 µg/mL (≈ 62.4 µM) in data set [2] (without polymer).
